# Molecular target: T1, fennel nsLTP1 (Anethum foeniculum, UniProt C0HLP9)
# T1 construct: native mature protein purified from seeds (gel filtration, RP-HPLC); 91 residues, 9433 Da, monomer
# T1 sequence (C0HLP9 1-91): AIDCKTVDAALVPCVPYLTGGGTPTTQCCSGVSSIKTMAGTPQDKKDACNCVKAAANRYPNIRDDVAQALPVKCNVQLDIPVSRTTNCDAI
# Test: TNS fluorescence displacement
# Assay type: binding
# Conditions: 3.5 µM TNS, 4 µM nsLTP1, fatty acid 5-20 µM; 175 mM mannitol, 0.5 mM K2SO4, 0.5 mM CaCl2, 5 mM MES pH 7.0, 25 °C; competitive with TNS
row,% of the control fluorescence (nsLTP1-TNS complex),Compound
1,40–69%,CCCCCCCCCCCCCCCC(=O)O [palmitic acid]
2,4–40%,"CCCCC/C=C\C/C=C\CCCCCCCC(=O)O [linoleic acid, cis, cis-9,12-Octadecadienoic acid]"
3,7–59%,"CC/C=C\C/C=C\C/C=C\CCCCCCCC(=O)O [linolenic acid, all-cis-9,12,15-octadecatrienoic acid]"
4,21–59%,CCCCCCCCCCCCCCCCCC(=O)O [stearic acid]

# — paper PMC7718255, “Structural characterization and in vitro lipid binding studies of non-specific lipid transfer protein 1 (nsLTP1) from fennel (Foeniculum vulgare) seeds” (Scientific Reports, 2020)
